The term IC50 denotes the concentration at which inhibition is half-maximal. For orientation: EC50 means the concentration giving half of the maximal effect. As a reminder, the AC50 is the concentration giving half of the maximal activity seen. For orientation: CC50 means the concentration that lowers cell viability or growth by half.

Assay [1] has as its target T1, Ubiquitin-conjugating enzyme E2 N (Homo sapiens, UniProt P61088).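 Also: Dose-response confirmation in a TR-FRET assay detecting UBC13-driven polyubiquitin chain formation, inhibition measured.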
T1 sequence (P61088 whole entry): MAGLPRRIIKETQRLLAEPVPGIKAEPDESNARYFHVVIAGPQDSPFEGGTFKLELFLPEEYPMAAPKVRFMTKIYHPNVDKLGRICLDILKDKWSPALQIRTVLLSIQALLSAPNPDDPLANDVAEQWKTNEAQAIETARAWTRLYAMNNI
The assay is classed as functional.

The nature of assay [2]: HIV-1 Vif–A3G interaction blockers – biochemical, TR-FRET, GST-Vif 1-94, biotin-A3G peptide, dose response retest, primary screen (AID 1117319).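 Also: TR-FRET signal of purified GST-Vif binding a biotinylated A3G peptide; inhibitors lower the FRET signal by blocking Vif and A3G binding.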 In kind it is functional. On the technique in general: TR-FRET usually uses a lanthanide donor and a delayed reading to cut background.
Assay [3] is described as follows: M. tuberculosis H37Rv growth inhibitors, H37Rv strain (AID 1626). The assay is classed as functional.
Assay [4] concerns the target T2, Leucine aminopeptidase (Plasmodium falciparum 3D7, UniProt Q8IL11).
T2 sequence (Q8IL11 whole entry): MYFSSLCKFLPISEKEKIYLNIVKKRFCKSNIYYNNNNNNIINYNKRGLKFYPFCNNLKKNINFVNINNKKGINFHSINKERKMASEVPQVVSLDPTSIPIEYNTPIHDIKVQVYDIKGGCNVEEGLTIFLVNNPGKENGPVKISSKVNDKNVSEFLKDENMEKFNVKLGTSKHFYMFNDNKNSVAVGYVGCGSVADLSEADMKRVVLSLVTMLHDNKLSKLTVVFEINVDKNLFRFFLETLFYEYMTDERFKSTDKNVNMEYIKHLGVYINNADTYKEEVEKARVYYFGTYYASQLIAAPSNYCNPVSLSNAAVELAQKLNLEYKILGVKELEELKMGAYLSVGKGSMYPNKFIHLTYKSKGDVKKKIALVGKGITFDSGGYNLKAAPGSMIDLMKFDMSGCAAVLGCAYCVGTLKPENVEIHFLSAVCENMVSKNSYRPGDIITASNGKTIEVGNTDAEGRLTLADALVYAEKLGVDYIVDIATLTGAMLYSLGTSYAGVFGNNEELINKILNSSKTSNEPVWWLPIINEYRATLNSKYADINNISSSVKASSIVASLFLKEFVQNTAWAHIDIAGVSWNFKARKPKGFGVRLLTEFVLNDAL
As to the kind of experiment: P. falciparum M17LAP inhibitors, primary screen, biochemical, fluorogenic H-Leu-NHMec substrate, 1536-well (AID 1619). The assay is classed as functional.

For assay [5], the target named is Genome polyprotein (dengue virus type 2, UniProt P29990). Briefly: flavivirus cap methylation enzyme inhibition – biochemical, confirmation dose response, primary screen (AID 588689). In kind it is functional.
Sequence of Genome polyprotein (P29990 2492-3391 limits assumed): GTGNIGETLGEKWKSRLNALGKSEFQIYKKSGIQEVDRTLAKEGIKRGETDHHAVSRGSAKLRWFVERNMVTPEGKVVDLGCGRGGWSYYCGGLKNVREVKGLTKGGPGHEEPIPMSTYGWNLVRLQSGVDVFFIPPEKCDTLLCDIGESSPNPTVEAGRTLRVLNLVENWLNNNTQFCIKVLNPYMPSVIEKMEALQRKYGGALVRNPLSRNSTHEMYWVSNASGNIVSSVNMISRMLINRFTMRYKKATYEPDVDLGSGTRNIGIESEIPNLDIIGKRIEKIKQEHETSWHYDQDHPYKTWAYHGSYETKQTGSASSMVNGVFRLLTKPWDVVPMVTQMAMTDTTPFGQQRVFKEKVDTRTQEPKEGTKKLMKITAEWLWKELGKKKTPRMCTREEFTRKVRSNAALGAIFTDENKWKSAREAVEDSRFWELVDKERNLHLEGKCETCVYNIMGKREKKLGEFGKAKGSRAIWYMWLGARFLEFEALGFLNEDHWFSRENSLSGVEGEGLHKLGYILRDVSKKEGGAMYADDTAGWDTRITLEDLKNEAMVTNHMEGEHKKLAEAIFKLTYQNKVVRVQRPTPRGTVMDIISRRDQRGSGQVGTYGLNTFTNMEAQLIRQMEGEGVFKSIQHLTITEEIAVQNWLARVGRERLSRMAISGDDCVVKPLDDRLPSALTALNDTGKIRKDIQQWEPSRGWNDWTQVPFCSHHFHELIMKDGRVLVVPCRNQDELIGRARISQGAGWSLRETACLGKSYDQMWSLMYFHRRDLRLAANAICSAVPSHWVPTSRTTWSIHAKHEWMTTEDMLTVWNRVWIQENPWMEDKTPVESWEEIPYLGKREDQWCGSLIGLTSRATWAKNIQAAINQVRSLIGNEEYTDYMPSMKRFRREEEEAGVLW
In assay [6] the target is T3, RNA-binding protein pos-1 (Caenorhabditis elegans, UniProt G5EF15).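 Also: purified POS-1 fused to maltose binding protein made in E. coli; potency of compounds blocking POS-1 binding to fluorescent RNA.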
T3 sequence (G5EF15 whole entry): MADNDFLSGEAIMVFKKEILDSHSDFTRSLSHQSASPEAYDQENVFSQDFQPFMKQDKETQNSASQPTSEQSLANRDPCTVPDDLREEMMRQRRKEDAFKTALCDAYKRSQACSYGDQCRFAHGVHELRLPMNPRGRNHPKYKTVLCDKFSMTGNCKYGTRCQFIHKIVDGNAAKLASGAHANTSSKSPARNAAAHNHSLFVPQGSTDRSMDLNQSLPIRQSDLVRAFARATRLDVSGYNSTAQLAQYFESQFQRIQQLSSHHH
Briefly: disruptors of C. elegans POS-1 RNA interaction – biochemical, fluorescence polarization, dose response (AID 1964). (In general: Polarisation of emitted light reports the rotation of a fluorescent probe.)

In assay [7] the target is T4, Zinc finger protein mex-5 (Caenorhabditis elegans, UniProt Q9XUB2).
T4 sequence (Q9XUB2 whole entry): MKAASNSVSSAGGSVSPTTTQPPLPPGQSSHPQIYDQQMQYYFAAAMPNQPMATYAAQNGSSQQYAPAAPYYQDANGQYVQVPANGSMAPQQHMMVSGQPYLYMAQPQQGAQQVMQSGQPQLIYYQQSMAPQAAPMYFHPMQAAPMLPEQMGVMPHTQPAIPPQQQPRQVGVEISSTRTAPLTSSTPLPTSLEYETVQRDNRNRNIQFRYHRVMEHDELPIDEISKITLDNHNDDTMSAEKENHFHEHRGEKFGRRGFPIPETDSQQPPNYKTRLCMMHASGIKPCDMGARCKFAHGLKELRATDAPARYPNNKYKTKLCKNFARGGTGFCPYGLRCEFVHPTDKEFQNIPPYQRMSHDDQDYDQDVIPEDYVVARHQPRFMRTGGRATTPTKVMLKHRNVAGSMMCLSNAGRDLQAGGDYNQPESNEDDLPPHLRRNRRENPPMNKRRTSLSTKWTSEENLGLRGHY
As to the kind of experiment: potency of MEX-5 RNA-binding blockers – biochemical, C. elegans, fluorescence polarization, dose response (AID 1960).

Assay [8] deals with T5, Caspase-6 (Homo sapiens, UniProt P55212).
T5 sequence (P55212 whole entry): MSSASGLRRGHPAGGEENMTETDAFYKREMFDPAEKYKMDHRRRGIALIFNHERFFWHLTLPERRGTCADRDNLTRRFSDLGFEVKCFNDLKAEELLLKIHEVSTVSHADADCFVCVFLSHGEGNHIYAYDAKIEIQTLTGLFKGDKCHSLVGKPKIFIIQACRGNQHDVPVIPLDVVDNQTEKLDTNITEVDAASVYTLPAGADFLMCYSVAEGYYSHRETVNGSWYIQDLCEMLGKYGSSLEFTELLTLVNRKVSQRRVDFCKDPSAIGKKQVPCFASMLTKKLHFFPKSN
Briefly: inhibition of CASP6 peptide cleavage – biochemical, VEID-R110 fluorescence, cherry-pick, dose response (AID 720632).

A short description of assay [9]: viability of uninfected HEp-2 cells – cell-based, HTS, cytotoxicity control for RSV inhibitor project, dose response (AID 2410). In kind it is functional. Conditions: human respiratory syncytial virus.
Assay [10] concerns the target Peroxisome proliferator-activated receptor gamma/Nuclear receptor coactivator 1 (Homo sapiens, UniProt P37231). As to the kind of experiment: TR-FRET dose response biochemical High Throughput Screening assay for agonists of the steroid receptor coactivator 1 (SRC-1) recruitment by the peroxisome proliferator-activated receptor gamma (PPAR gamma): non-selective agonists. [Related pubchem assays (depositor defined):AID1300, AID1808, AID504735, AID631]. In kind it is protein assay.

For assay [11], the target named is Peroxisome proliferator-activated receptor gamma/Nuclear receptor coactivator 3 (Homo sapiens, UniProt P37231). As to the kind of experiment: TR-FRET dose response biochemical High Throughput Screening assay for agonists of the steroid receptor coactivator 3 (SRC-3) recruitment by the peroxisome proliferator-activated receptor gamma (PPAR gamma): non-selective agonists. [Related pubchem assays: 1301 (Confirmation screen.), 1048 (Primary screen.)]. In kind it is functional.

In assay [12] the target is Peroxisome proliferator-activated receptor gamma/Nuclear receptor coactivator 2 (Homo sapiens, UniProt P37231). Briefly: TR-FRET dose response biochemical High Throughput Screening assay for agonists of the steroid receptor coactivator 2 (SRC-2) recruitment by the peroxisome proliferator-activated receptor gamma (PPAR gamma): non-selective agonists. [Related pubchem assays: 1297, 1032 ]. The assay is classed as functional.
Sequence of Peroxisome proliferator-activated receptor gamma/Nuclear receptor coactivator 2 (P37231 whole entry): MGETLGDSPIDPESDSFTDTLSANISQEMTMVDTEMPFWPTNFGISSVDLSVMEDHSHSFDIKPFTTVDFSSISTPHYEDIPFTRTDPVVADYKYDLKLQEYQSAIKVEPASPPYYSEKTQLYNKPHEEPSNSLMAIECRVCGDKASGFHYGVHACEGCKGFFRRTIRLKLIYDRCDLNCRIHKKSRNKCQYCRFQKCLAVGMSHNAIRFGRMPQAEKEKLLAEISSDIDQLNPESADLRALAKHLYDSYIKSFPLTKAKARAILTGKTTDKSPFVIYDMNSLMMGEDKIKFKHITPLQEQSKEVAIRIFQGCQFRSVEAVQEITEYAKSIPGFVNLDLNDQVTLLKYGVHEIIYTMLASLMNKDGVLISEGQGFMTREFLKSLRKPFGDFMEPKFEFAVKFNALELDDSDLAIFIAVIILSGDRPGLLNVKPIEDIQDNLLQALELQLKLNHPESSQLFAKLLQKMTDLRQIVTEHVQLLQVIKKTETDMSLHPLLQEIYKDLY
Sequence of Peroxisome proliferator-activated receptor gamma/Nuclear receptor coactivator 2 (Q15596 whole entry, further chain): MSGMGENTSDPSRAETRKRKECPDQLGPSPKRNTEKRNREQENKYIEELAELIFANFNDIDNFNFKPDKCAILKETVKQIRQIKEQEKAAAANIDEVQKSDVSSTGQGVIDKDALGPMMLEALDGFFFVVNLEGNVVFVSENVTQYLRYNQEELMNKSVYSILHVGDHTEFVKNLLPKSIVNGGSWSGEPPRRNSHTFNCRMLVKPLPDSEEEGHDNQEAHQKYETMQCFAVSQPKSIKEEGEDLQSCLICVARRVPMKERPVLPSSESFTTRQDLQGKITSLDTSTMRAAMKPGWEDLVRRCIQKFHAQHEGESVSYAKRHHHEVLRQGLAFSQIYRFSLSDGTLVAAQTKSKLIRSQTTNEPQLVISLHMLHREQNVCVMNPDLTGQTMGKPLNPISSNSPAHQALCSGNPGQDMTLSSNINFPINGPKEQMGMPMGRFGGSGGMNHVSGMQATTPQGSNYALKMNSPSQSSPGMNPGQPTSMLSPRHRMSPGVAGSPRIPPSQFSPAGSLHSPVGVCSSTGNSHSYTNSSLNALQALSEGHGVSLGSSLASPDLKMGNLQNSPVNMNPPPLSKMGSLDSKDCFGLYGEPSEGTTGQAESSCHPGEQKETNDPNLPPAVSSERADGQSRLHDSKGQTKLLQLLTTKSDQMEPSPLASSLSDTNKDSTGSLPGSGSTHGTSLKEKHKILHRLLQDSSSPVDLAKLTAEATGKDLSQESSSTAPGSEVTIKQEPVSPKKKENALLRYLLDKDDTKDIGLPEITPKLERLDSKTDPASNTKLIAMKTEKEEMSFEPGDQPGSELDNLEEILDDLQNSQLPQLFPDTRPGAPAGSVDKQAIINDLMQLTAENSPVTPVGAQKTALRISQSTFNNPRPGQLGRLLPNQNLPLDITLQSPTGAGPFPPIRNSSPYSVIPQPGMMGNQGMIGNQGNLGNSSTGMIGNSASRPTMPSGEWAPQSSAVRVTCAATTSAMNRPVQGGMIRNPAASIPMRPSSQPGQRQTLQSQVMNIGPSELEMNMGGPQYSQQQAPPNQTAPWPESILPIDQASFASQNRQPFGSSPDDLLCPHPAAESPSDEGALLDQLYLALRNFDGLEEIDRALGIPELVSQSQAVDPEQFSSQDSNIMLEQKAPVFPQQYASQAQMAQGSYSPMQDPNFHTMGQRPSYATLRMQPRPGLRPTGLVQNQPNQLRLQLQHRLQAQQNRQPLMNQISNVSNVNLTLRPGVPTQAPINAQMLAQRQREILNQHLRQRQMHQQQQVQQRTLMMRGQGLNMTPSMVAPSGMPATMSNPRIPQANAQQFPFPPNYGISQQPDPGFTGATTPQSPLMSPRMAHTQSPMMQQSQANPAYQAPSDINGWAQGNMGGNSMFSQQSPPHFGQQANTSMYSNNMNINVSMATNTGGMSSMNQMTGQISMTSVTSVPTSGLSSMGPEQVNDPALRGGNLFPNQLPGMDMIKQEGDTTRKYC

The target in assay [13] is T6, High affinity choline transporter 1 (Homo sapiens, UniProt Q9GZV3).
T6 sequence (Q9GZV3 whole entry): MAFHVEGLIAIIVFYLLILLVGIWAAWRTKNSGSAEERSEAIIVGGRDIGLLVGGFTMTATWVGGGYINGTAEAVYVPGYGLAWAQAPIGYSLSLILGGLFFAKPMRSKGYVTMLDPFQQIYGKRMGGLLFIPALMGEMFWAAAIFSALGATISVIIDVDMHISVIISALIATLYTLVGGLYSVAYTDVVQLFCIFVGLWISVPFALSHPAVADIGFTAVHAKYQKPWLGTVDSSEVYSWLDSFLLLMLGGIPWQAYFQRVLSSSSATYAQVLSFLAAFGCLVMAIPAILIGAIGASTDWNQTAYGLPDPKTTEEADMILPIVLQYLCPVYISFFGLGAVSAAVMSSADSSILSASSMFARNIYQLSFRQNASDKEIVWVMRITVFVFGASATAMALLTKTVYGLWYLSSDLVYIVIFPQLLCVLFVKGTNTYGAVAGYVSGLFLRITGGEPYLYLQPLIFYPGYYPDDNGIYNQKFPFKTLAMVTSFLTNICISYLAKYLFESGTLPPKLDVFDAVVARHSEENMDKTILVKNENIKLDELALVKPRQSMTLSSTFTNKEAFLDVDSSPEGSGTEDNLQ
Briefly: human choline transporter blockers, potency – cell-based, 5-point CRC, membrane potential dye, dose response (AID 504840). In kind it is functional.

Assay [14] deals with Nonstructural protein 1 (Influenza A virus, UniProt Q194T2). In kind it is functional, Influenza A virus (A/California/07/2009(H1N1)).
Sequence of Nonstructural protein 1 (Q194T2 whole entry): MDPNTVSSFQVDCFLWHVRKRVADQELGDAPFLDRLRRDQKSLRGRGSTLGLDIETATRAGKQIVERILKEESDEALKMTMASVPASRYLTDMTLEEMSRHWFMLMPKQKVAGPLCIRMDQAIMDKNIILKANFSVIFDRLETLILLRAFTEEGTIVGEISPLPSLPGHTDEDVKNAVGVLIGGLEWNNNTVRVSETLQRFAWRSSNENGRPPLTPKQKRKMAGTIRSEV
Assay [15] deals with T7, DNA repair and recombination protein RAD54-like (Homo sapiens, UniProt Q92698).
T7 sequence (Q92698 whole entry): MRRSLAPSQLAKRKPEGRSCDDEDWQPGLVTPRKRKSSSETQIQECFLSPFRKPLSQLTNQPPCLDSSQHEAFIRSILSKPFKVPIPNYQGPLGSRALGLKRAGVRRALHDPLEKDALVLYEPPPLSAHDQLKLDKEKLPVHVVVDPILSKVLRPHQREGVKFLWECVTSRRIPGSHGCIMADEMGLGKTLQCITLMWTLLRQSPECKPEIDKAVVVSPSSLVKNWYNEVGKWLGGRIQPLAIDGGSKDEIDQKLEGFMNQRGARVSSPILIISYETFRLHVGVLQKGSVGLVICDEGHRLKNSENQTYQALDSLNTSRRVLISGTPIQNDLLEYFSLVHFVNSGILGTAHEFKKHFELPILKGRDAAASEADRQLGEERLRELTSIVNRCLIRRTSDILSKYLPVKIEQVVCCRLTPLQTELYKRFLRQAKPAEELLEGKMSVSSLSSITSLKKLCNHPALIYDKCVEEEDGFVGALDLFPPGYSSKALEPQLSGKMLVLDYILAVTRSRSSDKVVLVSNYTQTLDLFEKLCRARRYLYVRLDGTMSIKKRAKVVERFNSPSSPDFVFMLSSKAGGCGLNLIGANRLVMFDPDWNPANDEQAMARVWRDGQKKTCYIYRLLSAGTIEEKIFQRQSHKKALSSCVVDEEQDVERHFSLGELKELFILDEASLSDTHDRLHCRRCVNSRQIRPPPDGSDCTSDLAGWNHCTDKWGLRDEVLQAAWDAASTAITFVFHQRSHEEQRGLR
As to the kind of experiment: RAD54 Holliday junction migration blockers – biochemical, fluorescence, cherry-picked samples, dose series, confirmation (AID 651657). In kind it is functional.

Assay [16] deals with Induced myeloid leukemia cell differentiation protein Mcl-1 (Homo sapiens, UniProt Q07820). The assay is classed as functional.
Sequence of Induced myeloid leukemia cell differentiation protein Mcl-1 (Q07820 whole entry): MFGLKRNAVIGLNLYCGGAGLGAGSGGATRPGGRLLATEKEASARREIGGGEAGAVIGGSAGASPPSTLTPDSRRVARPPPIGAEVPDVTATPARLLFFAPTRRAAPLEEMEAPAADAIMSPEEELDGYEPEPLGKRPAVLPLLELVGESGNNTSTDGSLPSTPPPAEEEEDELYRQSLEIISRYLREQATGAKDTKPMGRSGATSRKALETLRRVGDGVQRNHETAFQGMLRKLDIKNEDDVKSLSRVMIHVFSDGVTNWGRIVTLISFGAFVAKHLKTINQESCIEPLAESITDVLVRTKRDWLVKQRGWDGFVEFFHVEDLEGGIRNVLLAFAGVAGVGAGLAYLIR

The source made the active and inactive calls. Bounds are passed on as bounds.

On to `Cc1ccc2c(c1)C1CN(C)CCC1N2C(=O)CCCN1C(=O)c2cccc3cccc(c23)C1=O` (stereo unspecified), for which the IC50 in [1] was > 20 µM (inactive).
As to `CCCn1c(=N)n(CC(O)c2ccco2)c2ccccc21` (stereo unspecified), the IC50 in [2] was > 100 µM (active).
Still for that read-out and setting: the same measure for `Cc1ccc(C(=O)N2c3ccc(F)cc3CCC2C)o1` (stereo unspecified): > 100 µM (active); for `COc1ccc(N2CCN(CCNC(=O)Nc3ccc(Cl)cc3)CC2)cc1`: > 100 µM (active).
As for `COc1cccc(CNc2ccccc2O)c1OCc1ccccc1F`, the IC50 in assay [3] was > 100 µM (active).
Consider `O=C1/C(=C/c2ccc(C(=O)O)cc2)CCC/C1=C\c1ccc(C(=O)O)cc1`, for which the results for the 50% inhibitory concentration (IC50) in assay [4] and in assay [5] were 62.7 µM (active) and > 100 µM (active), respectively.
Take `N#CC1=C(N)Oc2cc(O)c(Cl)cc2C1c1ccccc1F` (stereo unspecified): the EC50 in [6] and in assay [7] was > 300 µM (not active) throughout. Also, the AC50 in assay [8] is 42.2 µM (active).
As to `N#CC1=C(N)Oc2c(c(=O)oc3ccccc23)C1c1ccc([N+](=O)[O-])o1` (stereo unspecified), the concentration at half-maximal activity (AC50) in assay [8] is 13.9 µM (active).
With `Cc1c(NC(=S)NC(=O)c2ccc(-c3ccc(Cl)cc3)o2)cccc1C(=O)O`, the IC50 in [4] is 29.7 µM (active). For the same compound, the CC50 in assay [9] was 35.4 µM (active).
For the compound `COc1c(F)c(F)c(C(=O)Nc2ccc3oc(-c4ccncc4)nc3c2)c(F)c1F`, the values for the EC50 in assay [10], in assay [11] and in assay [12] were 21.5 µM (inactive), 57.7 µM (not active) and 20.6 µM (not active), respectively. In assay [2], the half-inhibitory concentration (IC50) was > 100 µM (active).
As to `CCOc1ccc(NC(=O)CCn2cccc2)cc1`, in assay [3], the 50% inhibitory concentration (IC50) is > 100 µM (active).
As for `Cc1ccc(-c2[nH]nc3c2C(c2ccoc2)C(C#N)=C(N)O3)cc1C` (stereo unspecified), the IC50 in assay [4] is 3.65 µM (active).
For the compound `O=C(O)C1CCN(c2nc(-c3ccccc3)nc3c2oc2ccccc23)CC1`, the IC50 is 30.1 µM (active) in assay [4] and 9.12 µM (active) in assay [13].
As for `Cc1ccc(NC(=O)CCn2cnc3ccccc3c2=O)cc1Cl`, in assay [3], the IC50 is > 100 µM (active).
With `CCOc1ccc(NC=C2C(=O)CC(C)(C)CC2=O)cc1`, the IC50 in assay [3] is > 100 µM (active).
Consider `CSc1nc2ccc(NS(=O)(=O)c3cccc(Cl)c3Cl)cc2s1`, for which, in assay [3], the IC50 was > 100 µM (active).
As for `COc1ccc(NC(=O)CN2C(=O)CSC(C)C2=O)cc1` (stereo unspecified), the IC50 in [4] is 3.83 µM (active).
`CCc1nc2ccccc2c(C(=O)OCc2nc3ccccc3c(=O)[nH]2)c1C`: in [1], the IC50 is > 20 µM (inactive).
Regarding `C=CC(=O)Nc1ccc(N(C)c2ccnc(Nc3ccc(N4CCN(C)CC4)cc3)n2)cc1`, the IC50 in [1] was > 20 µM (inactive); in assay [14] it was 25.5 µM (active). For the same compound, the AC50 in assay [15] was 21 µM (active).
With `O=c1nc2s/c(=C\c3ccc(-c4ccccc4[N+](=O)[O-])o3)c(=O)n2nc1-c1ccccc1`, the IC50 in assay [16] is 9.66 µM (active). Moreover, the AC50 in [8] is 18 µM (active).
